Results published in patent US8969303B2, “Tocotrienol esters” (First Tech International Limited, priority 2010, dated 2015).

Tests used:
[1] = system: +SA mammary epithelial cells; experiment: Antiproliferative MTT assay on +SA mammary epithelial cells; type: cell-based, mouse; conditions: for IC50: malignant mice +SA mammary cells, 24 hour treatment, MTT; for antiproliferative activity: +SA mammary cells, in words
Source text: +SA mammary epithelial cell lines were serially passaged at subconfluent cell density. The +SA cell line was derived from an adenocarcinoma that developed spontaneously in a BALB/c female mouse. That cell line is discussed in more detail in Anderson, L. W., Danielson, K. G., Hosick, H. L. Eur. J. Cancer Clin. Oncol. 1981, 17, 1001-1008, Danielson, K G., Anderson, L. W., Hosick, H. L. Cancer Res. 1980, 40, 1812-1819.31, and Anderson, L. W., Danielson, K. G., Hosick, H. L. In Vitro. 1979, 15, 841-843. Cell culture conditions were similar to those described in detail in Shah, S. J., Gapor, A., Sylvester, P. W. Nutr. Cancer. 2003, 45, 236-246, Shah, S. J., Sylvester, P. W. Biochem. Cell. Biol. 2005, 83, 86-95, Wali, V. B., Sylvester, P. W. Lipids, 2007, 42, 1113-1123, and Wali, V. B., Bachawal, S. V., Sylvester, P. W. Exp. Biol. Med. (Maywood) 2009, 234, 639-650. Briefly, +SA cells were maintained in serum-free defined medium consisting of Dulbecco's modified Eagle's medium (DMEM)/F12 containing 5 mg/ml bovine serum albumin (BSA), […], 100 U/ml soybean trypsin inhibitor, 100 U/ml penicillin, 0.1 mg/ml streptomycin, […], and 10 ng/ml epidermal growth factor. For subculturing, cells were rinsed twice with sterile Ca^2+ and Mg^2+-free phosphate buffered saline (PBS) and incubated in 0.05% trypsin containing 0.025% EDTA in PBS for 5 minutes at 37° C. The released cells were centrifuged, resuspended in serum-free defined media and counted using a hemocytometer. A stock solution of the Compounds was prepared in DMSO. Once dissolved, this solution was added to a small volume of sterile 10% BSA in water and incubated overnight at 37° C. This solution conjugated to BSA was used to prepare various concentrations (0-40 μM) of tocotrienol analogs. DMSO was added to all treatment media such that the final DMSO concentration was the same in all treatment groups within a given experiment and was always less than 0.1%. For cytotoxicity studies, cells were seeded at a density of 5×10^4 cells/well (6 wells/group) in 24-well culture plates and allowed to grow in serum-free control defined media. After a 3 day incubation period (approximately 70% confluency), cells were divided equally into various treatment groups and exposed to their respective treatments for a 24 hour incubation period. Following the 24 hour treatment period, cell viability was measured using the MTT assay. All materials were purchased from Sigma Chemical Company (St. Louis, Mo.) unless otherwise stated.
+SA mammary epithelial cell viable number was determined by the 3-(4,5-dimethylthiazol-2-yl)-2,5-diphenyl tetrazolium bromide (MTT) colorimetric assay. On the day of assay, treatment medium was replaced with fresh growth medium containing 0.42 mg/ml MTT, and the cells in 24-well plates were incubated at 37° C. for 4 hours. Afterward, the medium was removed, and the MTT crystals were dissolved in isopropyl alcohol (1 ml/well). The optical density of each sample was read at 570 nm on a microplate reader (SpectraCount, Packard BioScience Company), against a blank prepared from cell-free cultures. The number of cells/well was calculated against a standard curve prepared by plating various concentrations of cells, as determined by hemocytometer, at the start of each experiment.
Differences among the various treatment groups in +SA cell cytotoxic studies were determined by analysis of variance (ANOVA) followed by Dunnett's t-test. The difference of P<0.05 was considered to be statistically significant as compared with vehicle-treated controls. Linear regression analysis of treatment effects on viable cell number in growth and cytotoxicity studies was used to determine the 50% growth inhibition concentration (IC50) for individual treatments.

MDA-MB-231 cells = experiment: Wound healing anti-migratory assay; type: cell-based; conditions: Homo sapiens, single dose of 5 μM, 24 hours, read-out: inhibition of the migrated MDA-MB231 cells
Experimental: The highly metastatic human breast cancer MDA-MB-231 cells were cultured in RPMI 1640 medium containing 10 mM HEPES, 4 mM L-glutamine, 10% fetal bovine serum, penicillin (100 IU mL-1), and streptomycin (50 μg mL-1), and grown in a 5% CO2 atmosphere at 37° C. Cells were plated onto sterile 24-well culture plates and allowed to recover for a confluent cell monolayer formed in each well (>95% confluence). Wounds were then inflicted to each cell monolayer using a sterile 200 μL pipette tip. Media were removed, cells monolayers were washed twice with PBS, and then fresh media containing test compounds were added to each well. Test compounds were prepared in DMSO at 5 μM concentration and added to the plates using DMSO as negative control. Tests were preformed in triplicate. The incubation was carried out for 24 hours under serum-starved conditions, after which the media was removed and the cells were fixed and stained using a Romanowski stain sold under the Diff Quick name (Dade Behring Diagnostics, Aguada, Puerto Rico). The number of cells which migrated on the scratched wound were counted under the microscope in three or more randomly selected fields (magnification: 400×). Final results are expressed as mean+/−SEM per 400× field.

[2] = Stability in phosphate buffer; type: physicochemical; conditions: phosphate buffer pH 7.4, 37° C.
Experimental: The stability of each of α-tocotrienol and Compound 6 was studied at 37° C. in phosphate buffer (pH 7.4). In amber vials, 500 μg/mL of each compound were dissolved in the buffer and the solution was incubated at 37° C. At interval times (0, 0.5, 1, 2, 4, 6, and 24 h), 50 μL it samples were collected and equal volumes of methanol were added to each sample followed by HPLC analysis.
A Shimadzu HPLC system (Columbia, Md.) was used for quantification of α-tocotrienol and Compound 6. This system is composed of SIL 20-AHT autosampler, SPD-20A UV/VIS detector, and LC-20AB pump connected to a Dgu-20A3 degasser. Data acquisition was achieved by LC Solution software version 1.22 SP1 Shimadzu. The following chromatographic conditions were used: […] (250×4.6 mm id; Phenomenex, Torrance, Calif.), flow rate was adjusted to 1.0 mL/min, and λ was set at 295 nm. For α-tocotrienol solubility and stability studies, an isocratic elution with MeOH-EtOH—CH3CN (40:30:30, v/v/v) as mobile phase for 10 min. α-tocotrienol was eluted at 6.7 min. For the simultaneous separation of α-tocotrienol and Compound 6 the following gradient elution was also used starting with H2O— MeOH—N(Et)3 (10:90:0.05, v/v/v) for 5 min, followed by isocratic MeOH—N(Et)3 (100:0.05, v/v) for another 10 min. The retention times were 4 and 14.1 for Compound 6 and α-tocotrienol, respectively. Standard curves for α-tocotrienol and Compound 6 in MeOH were prepared in the range of 0.4-50 μg/mL and 1-1000 μg/mL, respectively. Each compound was quantified using its calibration curve for compounds peak area versus its concentration.

[3] = Mus musculus, Epithelial cell, 24 h

Row | Structure (SMILES) | IC50 [1, 3] | other results
1 | CC(C)=CCC/C(C)=C/CC/C(C)=C/CC[C@]1(C)CCc2c(C)c(OC(=O)c3ccc(C(=O)O)cc3C(=O)O)c(C)c(C)c2O1 [Compound 1, 4-(((R)-2,5,7,8-tetramethyl-2-((3E,7E)-4,8,12-trimethyltrideca-3,7,11-trienyl)chroman-6-yloxy)carbonyl)isophthalic acid] | 1.5 µM | inhibition at 5 µM (MDA-MB-231 cells): ~50%
2 | CC(C)=CCC/C(C)=C/CC/C(C)=C/CC[C@]1(C)CCc2cc(OC(=O)c3ccc(C(=O)O)cc3C(=O)O)c(C)c(C)c2O1 [Compound 2, 4-(((R)-2,7,8-trimethyl-2-((3E,7E)-4,8,12-trimethyltrideca-3,7,11-trienyl)chroman-6-yloxy)carbonyl)isophthalic acid] | 0.62 µM | –
3 | CC(C)=CCC/C(C)=C/CC/C(C)=C/CC[C@]1(C)CCc2c(C)c(OC(=O)c3cc(C(=O)O)ccc3C(=O)O)c(C)c(C)c2O1 [Compound 3, 2-(((R)-2,5,7,8-tetramethyl-2-((3E,7E)-4,8,12-trimethyltrideca-3,7,11-trienyl)chroman-6-yloxy)carbonyl)terephthalic acid] | 1.46 µM | inhibition at 5 µM (MDA-MB-231 cells): ~50%
4 | CC(C)=CCC/C(C)=C/CC/C(C)=C/CC[C@]1(C)CCc2cc(OC(=O)c3cc(C(=O)O)ccc3C(=O)O)c(C)c(C)c2O1 [Compound 4, 2-(((R)-2,7,8-trimethyl-2-((3E,7E)-4,8,12-trimethyltrideca-3,7,11-trienyl)chroman-6-yloxy)carbonyl)terephthalic acid] | 1.44 µM | –
5 | CC(C)=CCC/C(C)=C/CC/C(C)=C/CC[C@]1(C)CCc2cc(OC(=O)c3cc(C(=O)O)ccc3C(=O)O)cc(C)c2O1 [Compound 5, 2-(((R)-2,8-dimethyl-2-((3E,7E)-4,8,12-trimethyltrideca-3,7,11-trienyl)chroman-6-yloxy)-carbonyl)terephthalic acid] | 1.5 µM | –
6 | CC(C)=CCC/C(C)=C/CC/C(C)=C/CC[C@]1(C)CCc2cc(OC(=O)/C=C\C(=O)O)c(C)c(C)c2O1 [Compound 7, (Z)-4-oxo-4-((R)-2,7,8-trimethyl-2-((3E,7E)-4,8,12-trimethyltrideca-3,7,11-trienyl)-chroman-6-yloxy)but-2-enoic acid] | 2.3 µM | –
7 | CC(C)=CCC/C(C)=C/CC/C(C)=C/CC[C@]1(C)CCc2cc(OC(=O)/C=C\C(=O)O)cc(C)c2O1 [Compound 8, (Z)-4-((R)-2,8-dimethyl-2-((3E,7E)-4,8,12-trimethyltrideca-3,7,11-trienyl)chroman-6-yloxy)-4-oxobut-2-enoic acid] | 0.86 µM | IC50 [1]: 0.87 µM
8 | CC(C)=CCC/C(C)=C/CC/C(C)=C/CC[C@]1(C)CCc2cc(OC(=O)CC(C)CC(=O)O)c(C)c(C)c2O1 (stereo partly drawn) [Compound 9, 3-Methyl-5-oxo-5-((R)-2,7,8-trimethyl-2-((3E,7E)-4,8,12-trimethyltrideca-3,7,11-trienyl)chroman-6-yloxy)pentanoic acid] | 19.2 µM | antiproliferative activity [1]: inactive
9 | CC(C)=CCC/C(C)=C/CC/C(C)=C/CC[C@]1(C)CCc2cc(OC(=O)c3ccccc3)c(C)c(C)c2O1 [Compound 10, (R)-2,7,8-trimethyl-2-((3E,7E)-4,8,12-trimethyltrideca-3,7,11-trienyl)chroman-6-yl benzoate] | 6.55 µM | antiproliferative activity [1]: inactive; inhibition at 5 µM (MDA-MB-231 cells): ~50%
10 | CC(=O)Oc1cc(C(=O)Oc2cc3c(c(C)c2C)O[C@](C)(CC/C=C(\C)CC/C=C(\C)CCC=C(C)C)CC3)cc(OC(C)=O)c1OC(C)=O [Compound 11, 5-(((R)-2,7,8-trimethyl-2-((3E,7E)-4,8,12-trimethyltrideca-3,7,11-trienyl)chroman-6-yloxy)carbonyl)benzene-1,2,3-triyl triacetate] | 1.72 µM | –
11 | CC(=O)Oc1ccc(/C=C/C(=O)Oc2cc3c(c(C)c2C)O[C@](C)(CC/C=C(\C)CC/C=C(\C)CCC=C(C)C)CC3)cc1OC(C)=O [Compound 12, 4-((E)-3-oxo-3-((R)-2,7,8-trimethyl-2-((3E,7E)-4,8,12-trimethyltrideca-3,7,11-trienyl)chroman-6-yloxy)prop-1-enyl)-1,2-phenylene diacetate] | > 40 µM | antiproliferative activity [1]: inactive
12 | CC(C)=CCC/C(C)=C/CC/C(C)=C/CC[C@]1(C)CCc2c(C)c(O)c(C)c(C)c2O1 [α-tocotrienol] | – | stability in phosphate buffer (in words) [2]: highly unstable; start of decomposition after dissolution [2]: 1 h; chemical stability relative to the zero time concentration ([2]; over 24 h): completely undetectable
